Measurements as given in patent US20250108213A1, “COMPOSITIONS AND METHODS FOR ENHANCING THE EFFECT OF PLATINUM-BASED SYSTEMIC THERAPY” (NOVOCURE GMBH, priority 2023, published 2025).
Entries after “also recorded” stand apart in the source; their conditions may differ.

What was measured:
A2780cis cells = experiment: Apoptosis, Annexin V/7-AAD staining, flow cytometer; type: cell-based, human; settings: TTFields applied with drug
Description: Apoptosis was also examined. Treated cells were double-stained with FITC-conjugated annexin V (AnnV) and 7-aminoactinomycin D (7AAD), and data acquisition was performed with a flow cytometer.
Treated cells were double-stained with FITC-conjugated annexin V (AnnV) and 7-aminoactinomycin D (7AAD), and data acquisition was performed with a flow cytometer.
(§1) Treated cells were stained with FITC-conjugated Annexin V (AnnV) and 7-Aminoactinomycin D (7-AAD) using a commercial kit (BioLegend, San Diego, CA, USA), according to the manufacturer's instruction. Data acquisition and analysis were done on the Cytek Northern Lights flow cytometer

OVCAR-3 cells = experiment: as above; type: cell-based, human; settings: TTFields applied with drug
Description: Apoptosis: Treated cells were double-stained with FITC-conjugated annexin V (AnnV) and 7-aminoactinomycin D (7AAD), and data acquisition was performed with a flow cytometer.
as §1

[1] = test system: γH2AX foci in cell nuclei; experiment: DNA damage examination by fluorescence microscopy; type: cell-based, human; settings: treatment alone, all cell lines (A2780, OVCAR-3, A2780cis), relative to control
Description: For DNA damage and cell cycle examination, the following drug concentrations were selected: For A2780—6 μM carboplatin, 1 μM olaparib, and 0.5 μM niraparib; For OVCAR-3-16 μM carboplatin, 0.5 μM olaparib, and 0.8 μM niraparib; For A2780cis—36 μM carboplatin, 10 μM olaparib, and 1.5 μM niraparib. Treated cells were fixed with 4% paraformaldehyde for 10 min, permeabilized for 20 min with 0.5% Triton X-100 in PBS, and blocked with donkey serum (PBS with 0.3% Triton X-100 and donkey serum 1:100). Cells were incubated at 4° C. overnight with anti-γH2AX antibody (Cell Signaling, Danvers, MA, USA; #9718, 1:400), followed by incubation at room temperature for 1 hr with Alexa Flour 488-conjugated secondary antibody (Jackson Immunoresearch, Cambridge, UK; #711-545-152, 1:500) and […] 4′,6-diamidino-2-phenylindole (DAPI; Sigma Aldrich, Rehovot, Israel). LSM 700 laser scanning confocal system (Zeiss, Gottingen, Germany) was utilized to obtain images, and the mean number of foci per nucleus was determined using the FIJI software with the BioVoxxel plugin.

G2/M cell cycle arrest = experiment: Cell cycle analysis (7-AAD, flow cytometer); type: cell-based, human
Description: For DNA damage and cell cycle examination, the following drug concentrations were selected: For A2780—6 μM carboplatin, 1 μM olaparib, and 0.5 μM niraparib; For OVCAR-3-16 μM carboplatin, 0.5 μM olaparib, and 0.8 μM niraparib; For A2780cis—36 μM carboplatin, 10 μM olaparib, and 1.5 μM niraparib. Treated cells were fixed with 70% ice-cold ethanol for 30 min, pelleted, washed, and stained for 30 min at 37° C. in phosphate buffered saline (PBS) containing 1% FBS 5 μg/ml 7-AAD (BioLegend), 200 μg/ml RNase, 1 mM EDTA and 0.1% Triton X-100. Data acquisition (at 665/30 nm) and analysis were done on the Cytek Northern Lights flow cytometer and the FlowJo 10.8.1 software (BD Biosciences), respectively.

[2] = test system: orthotopic ID8-fLuc (HRP) ovarian cancer tumors; experiment: Tumor load by bioluminescent imaging in ovarian cancer bearing mice; type: in vivo
Description: Murine experiments were approved by the KU Leuven ethical committee (P082/2021). NIH guidelines for the Care and Use of Laboratory Animals were followed along with the 2010/62/EU directive and the ARRIVE (Animal Research: Reporting of In Vivo Research: Reporting of In Vivo Experiments) guidelines. Syngeneic ID8-fluc cells were harvested using 0.05% Trypsin-EDTA and inoculated (5×10^6 cells in 100 μL DPBS) intraperitoneally in female C57BL/6 mice (six- to eight-week-old, obtained from Envigo (Horst, The Netherlands)), leading to the development of a stage III-IV ovarian cancer model.
Seven days post inoculation, treatment was initiated. Mice were divided into four groups receiving either, sham-heat and vehicle (n=8), sham-heat and olaparib (n=8), TTFields and vehicle (n=7) or TTFields and olaparib (n=11). TTFields treatment (200 kHz) was administered continuously using the in vivo system (Novocure, Israel) by applying electrode arrays to the shaven abdomen of the mice as previously described. […]
Tumor load was observed through bioluminescent imaging analysis before (day 5) and after (day 35) treatment administration. […] Ten minutes post injection, photon flux was measured using the IVIS-spectrum preclinical In Vivo Imaging System (Perkin-Elmer, USA). Normalized photon flux was calculated by subtracting the photon flux before treatment from the paired photon flux after treatment per mouse.

O=C(c1cc(Cc2n[nH]c(=O)c3ccccc23)ccc1F)N1CCN(C(=O)C2CC2)CC1 [olaparib]
effect of TTFields on the apoptotic effect / apoptotic cell fraction (A2780cis cells): elevation | effect of TTFields on the apoptotic effect / apoptotic cell fraction (OVCAR-3 cells): enhanced; also recorded: elevation | levels of γH2AX foci, monotherapy [1]: mild elevation | cell cycle arrest, drug alone (G2/M cell cycle arrest): induced G2/M arrest | tumor volumes lower compared to controls and to olaparib only treated mice ([2]; TTFields (200 kHz) plus olaparib 50 mg/kg/day oral gavage, after 4 weeks, p=0.0183 vs controls, p=0.0066 vs olaparib only): about 80% | tumor growth relative to olaparib alone and to control, TTFields and olaparib together ([2]; TTFields plus olaparib 50 mg/kg/day): significant reduction
